In patent publication EP0187355A1, “Process for preparing beta-lactam antibiotics” (E.R. Squibb & Sons, Inc., priority 1981, dated 1982):
Counter-ions that a name gives are not always drawn.

Key:
Assay in all cases: MIC, agar dilution
Format in all cases: cell-based
Proteus vulgaris, 9416 = conditions: K-10 agar, 10^4 CFU, 37°C, 18 hours; for MIC: read-out: M.I.C.
Method in brief: (§1)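 Inhibition of growth on compound-containing K-10 agar (final 100 to 0.05 µg/ml, twofold series) defined the endpoint, scored after 18 h at 37°C. Spots carried 10^4 CFU, with drug-free growth control plates inoculated before and after test plates.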

[1] = tested on: Klebsiella pneumoniae, 9527; conditions: K-10 agar, 10^4 CFU, 37°C; for MIC: Klebsiella pneumoniae, 9527, 18 h, read-out: M.I.C.
Method in brief: as §1

[2] = tested on: Klebsiella aerogenes, 10440; conditions: K-10 agar, 10^4 CFU, 37°C, 18 hours; for MIC: read-out: M.I.C.
Method in brief: as §1

[3] = tested on: Streptococcus faecalis, 9011; conditions: Streptococcus faecalis, 9011, K-10 agar, 10^4 CFU, 37°C, 18 hours; for MIC: Enterococcus faecalis, read-out: M.I.C.
Method in brief: as §1

Escherichia coli, 10896 = conditions: K-10 agar, 10^4 CFU, 37°C, 18 hours
Method in brief: as §1

[4] = tested on: Enterobacter aerogenes, 10078; conditions: Enterobacter aerogenes, 10078, K-10 agar, 10^4 CFU, 37°C, 18 hours; for MIC: Klebsiella aerogenes, 10078, 18 h, read-out: M.I.C.
Method in brief: as §1

Proteus mirabilis, 3855 = conditions: K-10 agar, 10^4 CFU, 37°C; for MIC: Proteus mirabilis, 3855, 18 h, read-out: M.I.C.
Method in brief: as §1

Escherichia coli, 10909 = conditions: K-10 agar, 10^4 CFU, 37°C, 18 hours
Method in brief: as §1

[5] = tested on: Staphylococcus aureus, 1276; conditions: Staphylococcus aureus, 1276, K-10 agar, 10^4 CFU, 37°C, 18 hours; for MIC: read-out: M.I.C.
Method in brief: as §1

[6] = tested on: Pseudomonas aeruginosa, 8329; conditions: K-10 agar, 10^4 CFU, 37°C, 18 hours; for MIC: read-out: M.I.C.
Method in brief: as §1

Escherichia coli, 10857 = conditions: K-10 agar, 10^4 CFU, 37°C; for MIC: Escherichia coli, 10857, 18 h
Method in brief: as §1

Escherichia coli, 8294 = conditions: K-10 agar, 10^4 CFU, 37°C; for MIC: Escherichia coli, 8294, 18 h
Method in brief: as §1

[7] = tested on: Acinetobacter calcoaceticus, 8333; conditions: K-10 agar, 10^4 CFU, 37°C; for MIC: Acinetobacter calcoaceticus, 8333, 18 h, read-out: M.I.C.
Method in brief: as §1

[8] = tested on: Staphylococcus aureus, 2399; conditions: Staphylococcus aureus, 2399, K-10 agar, 10^4 CFU, 37°C, 18 hours; for MIC: Staphylococcus aureus, 2399, 18 h, read-out: M.I.C.
Method in brief: as §1

Proteus rettgeri, 8479 = conditions: K-10 agar, 10^4 CFU, 37°C, 18 hours; for MIC: Providencia rettgeri, read-out: M.I.C.
Method in brief: as §1

[9] = tested on: Staphylococcus aureus, 2400; conditions: Staphylococcus aureus, 2400, K-10 agar, 10^4 CFU, 37°C, 18 hours; for MIC: read-out: M.I.C.
Method in brief: as §1

[10] = tested on: Pseudomonas aeruginosa, 9545; conditions: K-10 agar, 10^4 CFU, 37°C; for MIC: Pseudomonas aeruginosa, 9545, 18 h, read-out: M.I.C.
Method in brief: as §1

[11] = tested on: Citrobacter freundii, 9518; conditions: K-10 agar, 10^4 CFU, 37°C, 18 hours; for MIC: read-out: M.I.C.
Method in brief: as §1

Salmonella typhosa, 1195 = conditions: K-10 agar, 10^4 CFU, 37°C; for MIC: Salmonella enterica, TYPHOSA, 18 h
Method in brief: as §1

[12] = tested on: Staphylococcus aureus, 10165; conditions: Staphylococcus aureus, 10165, K-10 agar, 10^4 CFU, 37°C, 18 hours; for MIC: read-out: M.I.C.
Method in brief: as §1

[13] = tested on: Serratia marcescens, 9783; conditions: K-10 agar, 10^4 CFU, 37°C; for MIC: Serratia marcescens, 9783, 18 h, read-out: M.I.C.
Method in brief: as §1

Shigella sonnei, 8449 = conditions: K-10 agar, 10^4 CFU, 37°C; for MIC: Shigella sonnei, 8449, 18 h
Method in brief: as §1

[14] = tested on: Enterobacter cloacae, 8236; conditions: K-10 agar, 10^4 CFU, 37°C; for MIC: Enterobacter cloacae, 8236, 18 h
Method in brief: (§2)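 Broth cultures grown 18-20 h at 37°C, diluted 1:100 in K-10 broth, applied by multipoint inoculator at 10^4 CFU onto K-10 agar holding twofold compound dilutions, 100 to 0.05 µg/ml final. MIC taken as lowest concentration inhibiting growth.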

Micrococcus luteus, 2495 = conditions: K-10 agar, 10^4 CFU, 37°C; for MIC: Micrococcus luteus, 2495, 18 h, read-out: M.I.C.
Method in brief: as §2

[15] = tested on: Streptococcus agalactiae, 9287; conditions: K-10 agar, 10^4 CFU, 37°C; for MIC: Streptococcus agalactiae, 9287, 18 h, read-out: M.I.C.
Method in brief: as §2

SMILES: CON=C(C(=O)NC1C(=O)N(S(=O)(=O)O)C1C)c1csc(N)n1 (stereo not drawn) [Example 9, [3S-[3α(Z),4α]]-3-[[2-Amino-4-thiazolyl)-methoxyimino)acetyl]amino-4-methyl-2-oxo-1-azetidinesulfonic acid, potassium salt]
- M.I.C. (Proteus vulgaris, 9416): <0.05 µg/mL
- M.I.C. ([1]; 18 hours, potassium salt): <0.05 µg/mL
- M.I.C. [2]: 0.2 µg/mL
- M.I.C. [3]: - (A dash (-) in the tables means that the compound tested did not show activity against the particular organism at 100 µg/ml)
- M.I.C. (Escherichia coli, 10896): 0.1 µg/mL
- M.I.C. ([4]; potassium salt): 0.2 µg/mL
- M.I.C. (Proteus mirabilis, 3855; 18 hours, potassium salt): <0.05 µg/mL
- M.I.C. (Escherichia coli, 10909): <0.05 µg/mL
- M.I.C. [5]: 100 µg/mL
- M.I.C. [6]: 100 µg/mL
- M.I.C. (Escherichia coli, 10857; 18 hours): <0.05 µg/mL
- M.I.C. (Escherichia coli, 8294; 18 hours): 0.1 µg/mL
- M.I.C. ([7]; 18 hours, potassium salt): 25 µg/mL
- M.I.C. ([8]; potassium salt): 50 µg/mL
- M.I.C. (Proteus rettgeri, 8479): <0.05 µg/mL
- M.I.C. [9]: 50 µg/mL
- M.I.C. ([10]; 18 hours, potassium salt): 0.4 µg/mL
- M.I.C. [11]: 0.1 µg/mL
- M.I.C. (Salmonella typhosa, 1195; 18 hours): <0.05 µg/mL
- M.I.C. [12]: - (A dash (-) in the tables means that the compound tested did not show activity against the particular organism at 100 µg/ml)
- M.I.C. ([13]; 18 hours, potassium salt): 0.2 µg/mL
- M.I.C. (Shigella sonnei, 8449; 18 hours): 0.1 µg/mL
- M.I.C. ([14]; 18 hours, potassium salt): 0.1 µg/mL
- M.I.C. (Micrococcus luteus, 2495; 18 hours, potassium salt): 6.3 µg/mL
- M.I.C. ([15]; 18 hours, potassium salt): 1.6 µg/mL

SMILES: CC1C(NC(=O)C(NC(=O)N2CCN(N=Cc3ccco3)C2=O)c2ccccc2)C(=O)N1S(=O)(=O)O (stereo not drawn) [Example 11, [3S-[3α(R*),4β]]-3-[[[[[3-[(2-furanyl-methylene)amino]-2-oxo-1-imidazolidinyl]-carbonyl]amino]phenylacetyl]amino]-4-methyl-2-oxo-1-azetidinesulfonic acid, potassium salt]
- MIC (Proteus vulgaris, 9416): < 0.05 µg/mL
- MIC [1]: 0.1 µg/mL
- MIC [2]: 0.8 µg/mL
- MIC [3]: > 100 µg/mL
- MIC (Escherichia coli, 10896): 0.4 µg/mL
- MIC [4]: 1.6 µg/mL
- MIC (Proteus mirabilis, 3855): 0.4 µg/mL
- MIC (Escherichia coli, 10909): 0.1 µg/mL
- MIC [5]: 25 µg/mL
- MIC [6]: 12.5 µg/mL
- MIC (Escherichia coli, 10857): < 0.05 µg/mL
- MIC (Escherichia coli, 8294): 1.6 µg/mL
- MIC [7]: 12.5 µg/mL
- MIC [8]: 25 µg/mL
- MIC (Proteus rettgeri, 8479): 0.4 µg/mL
- MIC [9]: 25 µg/mL
- MIC [10]: 1.6 µg/mL
- MIC [11]: 0.8 µg/mL
- MIC (Salmonella typhosa, 1195): 0.2 µg/mL
- MIC [12]: > 100 µg/mL
- MIC [13]: 0.8 µg/mL
- MIC (Shigella sonnei, 8449): 0.4 µg/mL
- MIC [14]: 0.8 µg/mL
- MIC (Micrococcus luteus, 2495): 6.3 µg/mL
- MIC [15]: 0.4 µg/mL

SMILES: CCN1CCN(C(=O)NC(C(=O)NC2C(=O)N(S(=O)(=O)O)C2C)c2ccccc2)C(=O)C1=O (stereo not drawn) [Example 12, [3S-[3α(R*),4β]]-3-[[[[(4-ethyl-2,3-dioxo-1-piperazinyl)carbonyl]amino]phenylacetyl]-amino]-4-methyl-2-oxo-1-azetidinesulfonic acid, potassium salt]
- MIC (Proteus vulgaris, 9416): < 0.05 µg/mL
- MIC [1]: 0.1 µg/mL
- MIC [2]: 1.6 µg/mL
- MIC [3]: > 100 µg/mL
- MIC (Escherichia coli, 10896): 1.6 µg/mL
- MIC [4]: 3.1 µg/mL
- MIC (Proteus mirabilis, 3855): 0.4 µg/mL
- MIC (Escherichia coli, 10909): 0.1 µg/mL
- MIC [5]: 25 µg/mL
- MIC [6]: 12.5 µg/mL
- MIC (Escherichia coli, 10857): < 0.05 µg/mL
- MIC (Escherichia coli, 8294): 1.6 µg/mL
- MIC [7]: 12.5 µg/mL
- MIC [8]: 50 µg/mL
- MIC (Proteus rettgeri, 8479): 0.4 µg/mL
- MIC [9]: 50 µg/mL
- MIC [10]: 0.8 µg/mL
- MIC [11]: 1.6 µg/mL
- MIC (Salmonella typhosa, 1195): 0.2 µg/mL
- MIC [12]: > 100 µg/mL
- MIC [13]: 1.6 µg/mL
- MIC (Shigella sonnei, 8449): 0.8 µg/mL
- MIC [14]: 1.6 µg/mL
- MIC (Micrococcus luteus, 2495): 6.3 µg/mL
- MIC [15]: 6.3 µg/mL
